# Source: patent publication US6693126B2, “Dihydroxyphenyl derivatives for hepatoprotection and treatment of liver diseases” (Choongwae Pharm. Co., Ltd., priority 2000, dated 2004)
# Assays:
# [1] = system: Fulminant Liver Injuries caused by D-galactosamine/lipopolysaccharide in Mice; assay: Inhibitory effect against fulminant liver injuries caused by D-galactosamine/lipopolysaccharide in mice (survival); format: in vivo, Mice (ICR, male); settings: D-galactosamine 800 mg/kg + lipopolysaccharide 10 μg/kg i.p., dose 50 mg/kg oral once, observed 24 hours
# Text: Further, the D-galactosamine/lipopolysaccharide model(see, Chris Galanos et al., Proc. Natl. Acad. Sci. USA, 76, 11, 5939-5943, 1979; Koji Hase et al., Biol. Pharm. Bull., 20, 4, 381-385, 1997; Junichi Nagakawa et al., The Journal of Pharmacology and Experimental Therapeutics, 264, 1, 1992; Nolan J. D., Hepatology, 1, 458-465, 1981; Wendel A., Methods Enzymol., 186, 675-680, 1990) which is also used in the present invention for the identification of hepatoprotective effect is based on the phenomena that liver injuries are caused by immune responses in mouse. It has been reported that such kind of liver injuries are caused not by direct tissue lesions due to the chemicals but by secretion of tumor necrosis factor(TNF)-α, reactive oxygen, etc.(see, Hishinuma I. et al., Hepatology, 12, 1187-1191, 1990, Hase K. et al., Phytother. Res., 10, 387-392, 1996). Here, D-galactosamine supresses protein biosynthesis and as well highly increases the sensitivity of the liver cells for lipopolysaccharide by reducing uridine nucleotide.
# The hepatoprotective effect of the compound of the present invention was identified according to a known procedure(see, Koji Hase et al., Biol. Pharm. Bull., 20, 4, 381-385, 1997), and the protocol may be described in brief as follows.
# (§1) Mice(ICR, male, 27˜35 g) as the test animal were allowed in a condition of temperature 22±1° C. and relative humidity 60±5%. Feed and water were provided with no restriction while light and darkness were changed at an interval of 12 hours.
# The compound of the present invention was suspended in a solvent corn oil, and this suspension was administered in a dose of 10 ml/kg. Each group included 10 test animals, and the test compound was orally administered once per animal. After 1 hour from the administration of the test compound, D-galactosamine and lipopolysaccharide each of which dissolved in physiological saline were intraperitoneally injected at the same time in doses of 800 mg/kg and 10 μg/kg, respectively. As the control compounds, SY-640[N-methyl-N-(3,4-methylenedioxyphenacyl)acetamide; EP0350251], silymarin and DDB were selected.
# The statistical significance for the test result of each group was examined based on Student's t-test, and the result was recognized as having a statistical significance when its P value is less than 5%.
# [2] = system: Liver Injuries caused by Carbon Tetrachloride in Rats; assay: Inhibitory effect against liver injuries caused by carbon tetrachloride in rats; format: in vivo, Rats (SD, male); settings: CCl4 i.p., serum 24 h
# Text: (§2) The carbon tetrachloride model(see, Philippe letteron et al., Biochemical Pharmacology, 39, 12, 2027-2034, 1990; Tips, 10, 1989; Kyoichi Kagawa et al., Japan J. Pharmacol., 42, 19-26, 1986; K. T. Liu and P. Lesca, Chem. Biol. Interactions, 41, 39-47, 1982; Richard O. et al., J. Biological Chemistry, 236, 2, 1961) is used most generally. This model has been established based on the internal phenomena that carbon tetrachloride is converted by cytochrome P-450 to a toxic free radical trichloromethyl(CCl3.), this radical is strongly bound to a thiol group of membrane protein on microsome of liver to form a lipid radical, which is then converted to a peroxy radical in the presence of oxygen to facilitate the peroxidation reaction of membrane lipid. That is, carbon tetrachloride suppresses protein biosynthesis in the liver, induces the increase of ALT and AST values in blood, and further causes histologically the centrilobular necrosis of the liver.
# (§3) The degree of liver damage in the experimental animals was determined by measuring ALT and AST values in blood(see, Biol. Pharm. Bull., 20, 4, 381-385, 1997; Toxicology and Applied Pharmacology, 95, 1-11, 1988), and the hepatoprotective activity was calculated based on the following formula(see, Planta Medica, 55, 127-132, 1989). At this time, the hepatoprotective activity can also be calculated based on the same formula by replacing ALT value with AST value. [formula]
# (§4) The hepatoprotective effect of the compound of the present invention was identified according to a known procedure(see, Philippe letteron et al., Biochemical Pharmacology, 39, 12, 2027-2034, 1990), and the protocol may be described in brief as follows.
# (§5) Rats(SD, male, 180˜200 g) and mice(ICR, male, 27-35 g) used in the test were allowed in a condition of temperature 22±1° C. and relative humidity 60±5%. Feed and water were provided with no restriction while light and darkness were changed at an interval of 12 hours.
# (§6) […] […] Each group included 8 test animals, and the test compound was orally administered once per animal. After 30 minutes(rat) or 1 hour(mouse) from the administration of the test compound, 10% carbon tetrachloride in corn oil solution was intraperitoneally injected in doses of 2 ml/kg in rats and 0.15 ml/kg in mice. As the control compounds, silymarin and DDB were selected.
# (§7) The test animals were provided with no feed and sufficient water for 24 hours from the administration of carbon tetrachloride. […] This blood was centrifuged to obtain sera. ALT and AST values in the sera were measured using blood chemistry analyzer(Vitalab, Selectra II, Merck). The statistical significance for the test result of each group was examined based on Student's t-test, and the result was recognized as having a statistical significance when its P value is less than 5%.
# [3] = system: Liver Injuries caused by Carbon Tetrachloride in Mice; assay: Inhibitory effect against liver injuries caused by carbon tetrachloride in mice; format: in vivo, mice (ICR, male); settings: CCl4 i.p., serum 24 h
# Text: as §2, §3, §4, §5, §6, §7
# [4] = system: Liver Injuries caused by Thioacetamide in Mice; assay: Inhibitory effect against liver injuries caused by thioacetamide in mice; format: in vivo, Mice (ICR, male); settings: thioacetamide i.p., dose 50 mg/kg p.o. once, serum 24 h
# Text: The hepatoprotective effect of the compound of formula (1) was also identified by thioacetamide model(see, Masuda Yasusuke and Nakayama Nobue, Biochemical Pharmacology, 31, 17, 2713-2725, 1982; Liu Jie et al., Acta Pharmacologica Sinica, 16, 2, 97-102, 1995; Story D. L. et al., J. Tox. Environ. Health, 11, 483-501, 1983; Gomez-Lechon M. J. et al., Xenobiotica, 18, 6, 725-735, 1988) which is frequently used as an experimental model for liver injuries. This model has been established based on the phenomena that thioacetamide activated by P-450 S-oxidation inordinately increases the influx of calcium ion(Ca^++) into the liver cells, which in turn activates calcium ion-dependent phospholipase, protease and endonuclease, changes the cell frame through the calcium ion, exhausts ATP, and consequently destroys the liver cells. Thioacetamide also damages ureogenesis pathway in liver, and the metabolite of thioacetamide inhibits the transfer of RNA and makes the liver cell membranes unstable. A series of these activities results in the destruction of the liver cells, which in turn causes the increase of ALT and AST values in blood and also causes histologically the centrilobular necrosis.
# as §3
# The hepatoprotective effect of the compound of the present invention was identified according to a known procedure(see, Landon, E. J. et al., Biochemical Pharmacology, 35, 4, 697-705, 1986), and the protocol may be described in brief as follows.
# as §1
# The compound of the present invention was suspended in a solvent corn oil, and this suspension was administered in a dose of 10 ml/kg. Each group included 8 test animals, and the test compound was orally administered once per animal. After 1 hour from the administration of the test compound, thioacetamide solution(concentration: 90 mg/ml) in physiological saline was intraperitoneally injected in a dose of 1 ml/kg. As the control compounds, silymarin and DDB were selected.
# The test animals were provided with no feed and sufficient water for 24 hours from the administration of thioacetamide. […] This blood was centrifuged to obtain sera. ALT and AST values in the sera were measured using blood chemistry analyzer(Vitalab, Selectra II, Merck). The statistical significance for the test result of each group was examined based on Student's t-test, and the result was recognized as having a statistical significance when its P value is less than 5%.
SMILES,Survival Rate (%) [1] [%],Inhibitory Effect against Liver Injuries (%) ALT ([2]; dose 1.9 mg/kg p.o. once) [%],Inhibitory Effect against Liver Injuries (%) ALT ([2]; dose 5.6 mg/kg p.o. once) [%],Inhibitory Effect against Liver Injuries (%) ALT ([2]; dose 16.7 mg/kg p.o. once) [%],Inhibitory Effect against Liver Injuries (%) ALT ([2]; dose 50 mg/kg p.o. once) [%],Inhibitory Effect against Liver Injuries (%) ALT ([3]; dose 1.9 mg/kg p.o. once) [%],Inhibitory Effect against Liver Injuries (%) ALT ([3]; dose 5.6 mg/kg p.o. once) [%],Inhibitory Effect against Liver Injuries (%) ALT ([3]; dose 16.7 mg/kg p.o. once) [%],Inhibitory Effect against Liver Injuries (%) ALT ([3]; dose 50 mg/kg p.o. once) [%],Inhibitory Effect against Liver Injuries (%) ALT [4] [%]
"CC(=O)N(C)CC(=O)c1ccc2c(c1)OCO2 [SY-640, N-methyl-N-(3,4-methylenedioxyphenacyl)acetamide, reference compound]",90,,,,,,,,,
"C(=N\OCc1ccccn1)/c1ccc2c(c1)OCO2 [Compound 9, 1-[(2-pyridyl)methoxy]-1-aza-2-benzo[3,4-d]1,3-dioxolan-5-ylethene]",90,61,60,56,75,64,64,87,98,29
